Patent publication US20260226064A1, “POLYCYCLIC COMPOUND FOR TREATING NEUROLOGICAL DISEASES AND TUMORS” (Shanghai Institute of Organic Chemistry, Chinese Academy of …, priority 2023, published 2026)

System: acetylated microtubule in HEK293T cells
Assay: Microtubule-Stabilizing Activity Assay (acetylated microtubule immunoblot, HEK293T, colchicine challenge)
Assay type: cell-based
Details: 1 h pre-incubation, then colchicine 1 μM 3 h, relative to CNDR-51657 at 500 nM = 1.00; for Microtubule-Stabilizing Activity 50 nM: compound 50 nM; for Microtubule-Stabilizing Activity 500 nM: compound 500 nM
Procedure: Compound solvent: 100% dimethyl sulfoxide (DMSO). Cell line: HEK293T (ATCC, CRL3216). Culture conditions: Cells were cultured in Dulbecco's Modified Eagle's Medium (DMEM) containing 10% fetal bovine serum and 1% penicillin/streptomycin. Cells were cultured at 37° C. in a Thermo-Fisher incubator with a humidified atmosphere of 5% carbon dioxide.
One day prior to the experiment, 100,000 cells were seeded at a density of 200,000 cells/ml in a 24-well plate.
On the day of the experiment, 20 μl of PBS phosphate buffer containing the test compound at experimental concentrations or an equivalent volume of DMSO was added to each well. After incubating at 37° C. for 1 hour, colchicine was added to each well at a final concentration of 1 μM, followed by an additional 3-hour incubation at 37° C. The plate was then placed on ice. The medium in each well was removed, and the cells were washed with ice-cold PBS. After aspirating the PBS, 0.1 mL of ice-cold RIPA lysis buffer (containing 0.5% sodium deoxycholate, 0.1% SDS, 1% NP-40, 5 mM EDTA, pH 8.0) was quickly added. Prior to use, a commercial protease inhibitor cocktail (1:500) and 1 μM deacetylase inhibitor Trichostatin A (Sangon Biotech Co., Ltd.) were added to the cell lysis buffer. The cell lysate were transferred to a 1.5 ml centrifuge tube, sonicated, and centrifuged at 13,000 rpm for 10 minutes. The supernatant was collected, and protein concentration was determined using the BCA assay.
Based on existing literature (Black, 1989; Kurt, 2011), acetylated microtubule was used as an indicator of microtubule polymerization to assess the microtubule-stabilizing efficacy of the compounds. HEK293T cell lysates were analyzed by SDS-PAGE (7.5% gel) and immunoblotted using acetylated microtubule antibody (1:20,000, Sigma-Aldrich, T7451) and α-microtubule antibody (1:2,000, Proteintech, 11224-1-AP). After incubation with fluorescent dye-conjugated IgG (1:40,000, Licor), the blots were visualized using an Odyssey-Dlx imaging system. Grayscale analysis was performed using ImageJ.
The compound activity was quantified with the microtubule-stabilizing activity of CNDR-51657 (C5) (Jane, 2016) at 500 nM as 1.00.

Row | SMILES | Microtubule-Stabilizing Activity 50 nM | Microtubule-Stabilizing Activity 500 nM
1 | C[C@H](Nc1c(-c2c(F)cc(OC3CC4(CCC(N(C)C)CC4)C3)cc2F)c(Cl)nc2ncnn12)C(F)(F)F (stereo partly drawn) [Example 20, (S)-5-Chloro-6-(2,6-difluoro-4-((7-(dimethylamino)spiro[3.5]nonan-2-yl)oxy)phenyl)-N-(1,1,1-trifluoropropan-2-yl)-[1,2,4]triazolo[1,5-a]pyrimidin-7-amine] | 0.05 | 1.32
2 | CC(C)[C@@H](C)Nc1c(-c2c(F)cc(OCC3[C@H]4CNC[C@@H]34)cc2F)c(Cl)nc2ncnn12 (stereo partly drawn) [Example 21, 6-(4-(((1R,5S,6r)-3-Azabicyclo[3.1.0]hexan-6-yl)methoxy)-2,6-difluorophenyl)-5-chloro-N—((R)-3-methylbutan-2-yl)-[1,2,4]triazolo[1,5-a]pyrimidin-7-amine] | 1.27 | 1.60
3 | CC(C)[C@@H](C)Nc1c(-c2c(F)cc(OCC3[C@H]4CN(C)C[C@@H]34)cc2F)c(Cl)nc2ncnn12 (stereo partly drawn) [Example 22, 5-Chloro-6-(2,6-difluoro-4-(((1R,5S,6r)-3-methyl-3-azabicyclo[3.1.0]hex-6-yl)methoxy)phenyl)-N—((R)-3-methylbutan-2-yl)-[1,2,4]triazolo[1,5-a]pyrimidin-7-amine] | 1.88 | 1.61
4 | Cc1nc2ncnn2c(N[C@H](C)C(C)C)c1-c1c(F)cc(OCC2[C@H]3CNC[C@@H]23)cc1F (stereo partly drawn) [Example 23, 6-(4-(((1R,5S,6r)-3-Azabicyclo[3.1.0]hex-6-yl)methoxy)-2,6-difluorophenyl)-5-methyl-N—((R)-3-methylbutan-2-yl)-[1,2,4]triazolo[1,5-a]pyrimidin-7-amine] | 0.80 | 0.99
5 | C[C@@H](Nc1c(-c2c(F)cc(OCC3[C@H]4CNC[C@@H]34)cc2F)c(Cl)nc2ncnn12)C1CCC1 (stereo partly drawn) [Example 26, 6-(4-(((1R,5S,6r)-3-Azabicyclo[3.1.0]hexan-6-yl)methoxy)-2,6-difluorophenyl)-5-chloro-N—((R)-1-cyclobutylethyl)-[1,2,4]triazolo[1,5-a]pyrimidin-7-amine] | 1.35 | 1.41
6 | C[C@@H](Nc1c(-c2c(F)cc(OCC3[C@H]4CN(C)C[C@@H]34)cc2F)c(Cl)nc2ncnn12)C1CCC1 (stereo partly drawn) [Example 27, 5-Chloro-N—((R)-1-cyclobutylethyl)-6-(2,6-difluoro-4-(((1R,5S,6r)-3-methyl-3-azabicyclo[3.1.0]hexan-6-yl)methoxy)phenyl)-[1,2,4]triazolo[1,5-a]pyrimidin-7-amine] | 1.64 | 1.37
7 | Cc1nc2ncnn2c(N[C@H](C)C2CCC2)c1-c1c(F)cc(OCC2[C@H]3CNC[C@@H]23)cc1F (stereo partly drawn) [Example 28, 6-(4-(((1R,5S,6r)-3-Azabicyclo[3.1.0]hexan-6-yl)methoxy)-2,6-difluorophenyl)-5-methyl-N—((R)-1-cyclobutylethyl)-[1,2,4]triazolo[1,5-a]pyrimidin-7-amine] | 1.65 | 1.43
8 | CC(C)[C@@H](C)Nc1c(-c2c(F)cc(OC[C@@H]3[C@@H]4CNC[C@@H]43)cc2F)c(Cl)nc2ncnn12 [Example 29, 6-(4-(((1R,5S,6s)-3-Azabicyclo[3.1.0]hexan-6-yl)methoxy)-2,6-difluorophenyl)-5-chloro-N—((R)-3-methylbutan-2-yl)-[1,2,4]triazolo[1,5-a]pyrimidin-7-amine] | 0.32 | 1.69
9 | CC(C)[C@@H](C)Nc1c(-c2c(F)cc(OC[C@H]3[C@H]4CN(C)C[C@@H]34)cc2F)c(Cl)nc2ncnn12 [Example 30, 5-Chloro-6-(2,6-difluoro-4-(((1R,5S,6s)-3-methyl-3-azabicyclo[3.1.0]hex-6-yl)methoxy)phenyl)-N—((R)-3-methylbutan-2-yl)-[1,2,4]triazolo[1,5-a]pyrimidin-7-amine] | 0.09 | 0.97
10 | C[C@H](Nc1c(-c2c(F)cc(OC[C@@H]3[C@@H]4CNC[C@@H]43)cc2F)c(Cl)nc2ncnn12)C(F)(F)F [Example 31, 6-(4-(((1R,5S,6s)-3-Azabicyclo[3.1.0]hex-6-yl)methoxy)-2,6-difluorophenyl)-5-chloro-N—((S)-1,1,1-trifluoropropan-2-yl)-[1,2,4]triazolo[1,5-a]pyrimidin-7-amine] | 0.35 | 1.25
11 | C[C@H](Nc1c(-c2c(F)cc(OC[C@H]3[C@H]4CN(C)C[C@@H]34)cc2F)c(Cl)nc2ncnn12)C(F)(F)F [Example 32, 5-Chloro-6-(2,6-difluoro-4-(((1R,5S,6s)-3-methyl-3-azabicyclo[3.1.0]hexan-6-yl)methoxy)phenyl)-N—((S)-1,1,1-trifluoropropan-2-yl)-[1,2,4]triazolo[1,5-a]pyrimidin-7-amine] | 0.07 | 2.51
12 | Fc1cc(OC[C@H]2[C@@H]3CNC[C@@H]32)cc(F)c1-c1c(Cl)nc2ncnn2c1NCC(F)(F)F [Example 33, 6-(4-(((1R,5S,6r)-3-azabicyclo[3.1.0]hexan-6-yl)methoxy)-2,6-difluorophenyl)-5-chloro-N-(2,2,2-trifluoroethyl)-[1,2,4]triazolo[1,5-a]pyrimidin-7-amine] | 1.46 | 1.64
13 | CN1C[C@@H]2[C@@H](COc3cc(F)c(-c4c(Cl)nc5ncnn5c4NCC(F)(F)F)c(F)c3)[C@@H]2C1 [Example 34, 5-Chloro-6-(2,6-difluoro-4-(((1R,5S,6r)-3-methyl-3-azabicyclo[3.1.0]hexan-6-yl)methoxy)phenyl)-N-(2,2,2-trifluoroethyl)-[1,2,4]triazolo[1,5-a]pyrimidin-7-amine] | 1.05 | 2.10
14 | CC(C)[C@@H](C)Nc1c(-c2c(F)cc(O[C@H]3C[C@H]4CNC[C@H]4C3)cc2F)c(Cl)nc2ncnn12 [Example 36, 5-Chloro-6-(2,6-difluoro-4-(((3aR,5r,6aS)-octahydrocyclopenta[c]pyrrol-5-yl)oxy)phenyl)-N—((R)-3-methylbutan-2-yl)-[1,2,4]triazolo[1,5-a]pyrimidin-7-amine] | 0.47 | 0.37
15 | CC(C)[C@@H](C)Nc1c(-c2c(F)cc(O[C@@H]3C[C@@H]4CN(C)C[C@@H]4C3)cc2F)c(Cl)nc2ncnn12 [Example 37, 5-Chloro-6-(2,6-difluoro-4-(((3aR,5r,6aS)-2-methyloctahydrocyclopenta[c]pyrrol-5-yl)oxy)phenyl)-N—((R)-3-methylbutan-2-yl)-[1,2,4]triazolo[1,5-a]pyrimidin-7-amine] | 0.16 | 0.17
16 | C[C@H](Nc1c(-c2c(F)cc(O[C@H]3C[C@H]4CNC[C@H]4C3)cc2F)c(Cl)nc2ncnn12)C(F)(F)F [Example 38, 5-Chloro-6-(2,6-difluoro-4-(((3aR,5r,6aS)-octahydrocyclopenta[c]pyrrol-5-yl)oxy)phenyl)-N—((S)-1,1,1-trifluoropropan-2-yl)-[1,2,4]triazolo[1,5-a]pyrimidin-7-amine] | 0.31 | 0.95
17 | C[C@H](Nc1c(-c2c(F)cc(O[C@@H]3C[C@@H]4CN(C)C[C@@H]4C3)cc2F)c(Cl)nc2ncnn12)C(F)(F)F [Example 39, 5-Chloro-6-(2,6-difluoro-4-(((3aR,5r,6aS)-2-methyloctahydrocyclopenta[c]pyrrol-5-yl)oxy)phenyl)-N—((S)-1,1,1-trifluoropropan-2-yl)-[1,2,4]triazolo[1,5-a]pyrimidin-7-amine] | 0.29 | 0.45
18 | CC(C)[C@@H](C)Nc1c(-c2c(F)cc(O[C@@H]3C[C@H]4CNC[C@H]4C3)cc2F)c(Cl)nc2ncnn12 [Example 40] | 0.17 | 0.69
19 | CC(C)[C@@H](C)Nc1c(-c2c(F)cc(O[C@H]3C[C@@H]4CN(C)C[C@@H]4C3)cc2F)c(Cl)nc2ncnn12 [Example 41, 5-Chloro-6-(2,6-difluoro-4-(((3aR,5s,6aS)-2-methyloctahydrocyclopenta[c]pyrrol-5-yl)oxy)phenyl)-N—((R)-3-methylbutan-2-yl)-[1,2,4]triazolo[1,5-a]pyrimidin-7-amine] | 0.11 | 1.93
